Key:
Acetylcholinesterase [1] = target: T1, Acetylcholinesterase (Electrophorus electricus, UniProt O42275); test: Inhibition of electric eel AChE
[2] = Inhibition of voltage-dependent Ca2+ channel; conditions: concentration not given here
Cholinesterase = Cholinesterase (Homo sapiens, UniProt P06276)
Description: Inhibition of human BuChE using butyrylthiocholine iodide as substrate incubated for 10 mins prior to substrate addition measured after 15 mins by Ellman's method

Acetylcholinesterase [3] = target: Acetylcholinesterase (Homo sapiens, UniProt P22303)
Description: Inhibition of human AChE using acetylthiocholine iodide as substrate incubated for 10 mins prior to substrate addition measured after 15 mins by Ellman's method

in vitro [4] = conditions: human, HepG2 cells
Description: Cytotoxicity against human HepG2 cells assessed as cell viability at 10 uM after 24 hrs by MTT assay relative to control

in vitro [5] = conditions: human, HepG2 cells; remark: listed apart in the source
Description: Cytotoxicity against human HepG2 cells assessed as cell viability at 3 uM after 24 hrs by MTT assay relative to control

in vitro [6] = conditions: human, HepG2 cells; remark: listed apart in the source
Description: Cytotoxicity against human HepG2 cells assessed as cell viability at 30 uM after 24 hrs by MTT assay relative to control

HepG2 = test: Cytotoxicity against human HepG2 cells assessed as cell viability after 24 hrs by MTT assay relative to control; format: cell-based; conditions: hepg2, 24 h
in vitro [7] = conditions: human, HepG2 cells; remark: listed apart in the source
Description: Cytotoxicity against human HepG2 cells assessed as cell viability at 100 uM after 24 hrs by MTT assay relative to control

[8] = Neurotoxicity in Wistar rat primary cortical neurons assessed as decrease in cell viability at 50 uM by XTT assay; format: toxicity, cell-based; conditions: cerebral cortex neuron
cells = conditions: Rattus norvegicus, Wistar, Cerebral cortex neuron, 24 h
Description: Neuroprotective activity in 20 uM rotenone and 10 uM oligomycin-treated Wistar rat primary cortical neurons assessed as increase in cell viability after 24 hrs by XTT assay

[9] = Permeability of the compound by PAMPA; format: ADME; conditions: read-out: permeability
in vitro [10] = conditions: human, HepG2 cells; remark: listed apart in the source
Description: Cytotoxicity against human HepG2 cells assessed as cell viability at 300 uM after 24 hrs by MTT assay relative to control

in vitro [11] = conditions: human, HepG2 cells; remark: listed apart in the source
Description: Cytotoxicity against human HepG2 cells assessed as cell viability at 1 uM after 24 hrs by MTT assay relative to control

[12] = Neurotoxicity in Wistar rat primary cortical neurons assessed as decrease in cell viability at 100 uM by XTT assay; format: toxicity, cell-based; conditions: cerebral cortex neuron
Acetylcholinesterase [13] = target: T1, Acetylcholinesterase; test: Mixed-type inhibition of electric eel AChE using acetylthiocholine iodide as substrate by Ellman's method
[14] = Antioxidant activity assessed as AAPH-induced radical scavenging activity incubated for 15 mins prior to AAPH induction measured every 1 min for 80 mins by ORAC-FL assay relative to trolox; format: functional

Acetylcholinesterase (Homo sapiens, UniProt P22303), sequence (P22303 whole entry): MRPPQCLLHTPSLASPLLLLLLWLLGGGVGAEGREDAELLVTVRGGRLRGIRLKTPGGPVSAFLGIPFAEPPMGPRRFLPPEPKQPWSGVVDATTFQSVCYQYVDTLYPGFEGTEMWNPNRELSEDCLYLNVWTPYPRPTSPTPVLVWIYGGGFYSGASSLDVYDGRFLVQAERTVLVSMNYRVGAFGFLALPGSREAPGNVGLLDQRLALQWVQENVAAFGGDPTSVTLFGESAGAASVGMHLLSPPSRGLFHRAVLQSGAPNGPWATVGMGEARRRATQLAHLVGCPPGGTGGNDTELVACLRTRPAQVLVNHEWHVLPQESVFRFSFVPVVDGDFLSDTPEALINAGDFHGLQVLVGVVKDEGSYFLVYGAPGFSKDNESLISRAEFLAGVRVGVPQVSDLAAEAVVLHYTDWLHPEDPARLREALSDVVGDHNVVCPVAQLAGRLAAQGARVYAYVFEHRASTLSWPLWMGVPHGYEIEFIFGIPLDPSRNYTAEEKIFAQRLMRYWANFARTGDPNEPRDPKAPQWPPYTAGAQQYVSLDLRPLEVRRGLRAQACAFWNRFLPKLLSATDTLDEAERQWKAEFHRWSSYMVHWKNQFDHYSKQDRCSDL
Cholinesterase, sequence (P06276 whole entry): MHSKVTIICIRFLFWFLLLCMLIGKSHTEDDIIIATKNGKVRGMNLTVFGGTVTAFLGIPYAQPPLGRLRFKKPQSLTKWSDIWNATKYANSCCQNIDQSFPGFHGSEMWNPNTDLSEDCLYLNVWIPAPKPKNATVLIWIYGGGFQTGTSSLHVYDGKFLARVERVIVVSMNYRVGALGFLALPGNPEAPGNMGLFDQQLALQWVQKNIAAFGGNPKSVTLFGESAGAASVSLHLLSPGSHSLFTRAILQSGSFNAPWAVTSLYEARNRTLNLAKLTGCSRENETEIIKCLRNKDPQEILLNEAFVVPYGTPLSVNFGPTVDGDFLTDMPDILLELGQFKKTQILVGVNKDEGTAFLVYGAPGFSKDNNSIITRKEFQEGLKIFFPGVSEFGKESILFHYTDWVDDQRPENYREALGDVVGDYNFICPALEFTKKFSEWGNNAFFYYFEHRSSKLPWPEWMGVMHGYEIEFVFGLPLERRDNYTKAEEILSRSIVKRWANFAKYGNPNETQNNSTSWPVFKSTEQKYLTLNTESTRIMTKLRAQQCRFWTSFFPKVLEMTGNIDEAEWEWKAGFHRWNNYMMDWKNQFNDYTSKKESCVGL
T1 sequence (O42275 whole entry): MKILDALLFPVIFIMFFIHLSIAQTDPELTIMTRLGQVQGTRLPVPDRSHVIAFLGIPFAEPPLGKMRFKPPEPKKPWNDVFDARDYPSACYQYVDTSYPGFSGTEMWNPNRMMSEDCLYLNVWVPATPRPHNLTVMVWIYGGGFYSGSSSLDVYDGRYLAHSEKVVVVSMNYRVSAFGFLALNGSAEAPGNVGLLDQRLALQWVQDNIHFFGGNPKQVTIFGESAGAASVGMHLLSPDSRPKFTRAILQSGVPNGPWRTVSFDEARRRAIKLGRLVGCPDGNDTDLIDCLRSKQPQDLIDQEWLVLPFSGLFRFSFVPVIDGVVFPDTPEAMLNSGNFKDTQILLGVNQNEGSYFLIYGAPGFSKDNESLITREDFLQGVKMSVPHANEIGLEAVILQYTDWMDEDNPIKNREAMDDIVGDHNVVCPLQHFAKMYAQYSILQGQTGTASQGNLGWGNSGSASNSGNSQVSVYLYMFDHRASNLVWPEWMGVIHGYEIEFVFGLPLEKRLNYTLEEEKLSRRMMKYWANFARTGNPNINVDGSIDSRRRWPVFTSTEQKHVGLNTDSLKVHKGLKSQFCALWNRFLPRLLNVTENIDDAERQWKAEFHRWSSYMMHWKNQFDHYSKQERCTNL

| Structure (SMILES) | IC50 (Cholinesterase) | IC50 (Acetylcholinesterase [3]) | viability at 24 h, 10 µM (in vitro [4]) | viability at 24 h, 3 µM (in vitro [5]) | viability at 24 h, 30 µM (in vitro [6]) | Activity (HepG2) | viability at 24 h, 100 µM (in vitro [7]) | Activity [8] | EC50 (cells) | Papp [9] | viability at 24 h, 300 µM (in vitro [10]) | viability at 24 h, 1 µM (in vitro [11]) | also measured |
| --- | --- | --- | --- | --- | --- | --- | --- | --- | --- | --- | --- | --- | --- |
| CCOC(=O)c1c(C)nc2nc3c(c(N)c2c1-c1ccc(F)cc1)CCCC3 |  |  |  |  |  |  |  |  |  |  |  |  | IC50 (Acetylcholinesterase [1]): 0.71 µM; inhibition [2]: 38% |
| Nc1c2c(nc3c1C(c1ccc(Cl)c(Cl)c1)c1ccc4ccccc4c1O3)CCCC2 (racemic) | > 10 µM | 5.07 µM | 79.9% | 86.2% | 68.1% | Dose-dependent effect | 63.4% | Non-toxic | 3.28 µM | 12.3 ×10⁻⁶ cm/s | 61% | 97.5% | Activity [12]: 40% |
| COc1ccc(C2c3ccc4ccccc4c3Oc3nc4c(c(N)c32)CCCC4)c(OC)c1 (racemic) | > 10 µM | 0.37 µM | 85.3% | 84.2% | 76.9% | Dose-dependent effect | 78.9% | Non-toxic | 11.1 µM | 14.6 ×10⁻⁶ cm/s | 74.8% | 97.8% | Activity [12]: 40% |
| CCOC(=O)C1=C(C)Oc2nc3c(c(N)c2C1c1ccc(OC)cc1)CCCC3 (stereo not drawn) |  |  |  |  |  |  |  |  |  |  |  |  | inhibition [2]: 50% |
| Cc1ccc(C2c3ccc4ccccc4c3Oc3nc4c(c(N)c32)CCCC4)cc1 (racemic) | > 10 µM | 0.4 µM |  |  |  |  |  |  |  |  |  |  |  |
| Nc1c2c(nc3c1C(c1ccccc1)c1ccc4ccccc4c1O3)CCCC2 (racemic) | > 10 µM | 0.3 µM |  |  |  |  |  |  |  |  |  |  |  |
| COc1ccccc1C1c2ccc3ccccc3c2Oc2nc3c(c(N)c21)CCCC3 (racemic) | 9.37 µM | 4.53 µM |  |  |  |  |  |  |  |  |  |  |  |
| Nc1c2c(nc3c1C(c1c(Cl)cccc1Cl)c1ccc4ccccc4c1O3)CCCC2 (racemic) | > 10 µM | 4.01 µM |  |  |  |  |  |  |  |  |  |  |  |
| Nc1c2c(nc3c1C(c1ccc([N+](=O)[O-])cc1)c1ccc4ccccc4c1O3)CCCC2 (racemic) | > 10 µM | 5.74 µM | 92.6% | 93% | 90.3% | Dose-dependent effect | 85% | Non-toxic | 2.36 µM | 16.1 ×10⁻⁶ cm/s | 72.1% | 95% | Activity [12]: 40% |
| Nc1c2c(nc3c1C(c1ccc(O)cc1)c1ccc4ccccc4c1O3)CCCC2 (racemic) | > 10 µM | 7.83 µM |  |  |  |  |  |  |  |  |  |  |  |
| COc1cc(C2c3ccc4ccccc4c3Oc3nc4c(c(N)c32)CCCC4)cc(OC)c1OC (racemic) | > 10 µM | 3.51 µM | 96.4% | 95.6% | 96.6% | Dose-dependent effect | 94.5% | Non-toxic | 4.38 µM | 23.4 ×10⁻⁶ cm/s | 93.5% | 96.5% |  |
| COc1cc(C2c3ccc4ccccc4c3Oc3nc4c(c(N)c32)CCCC4)ccc1O (racemic) | > 10 µM | 0.33 µM |  |  |  |  |  |  |  |  |  |  | Ki (Acetylcholinesterase [13]): 0.081 µM; fold change (FC) [14]: 1.5 |

— ChEMBL document CHEMBL2203041, “Synthesis, biological assessment, and molecular modeling of racemic 7-aryl-9,10,11,12-tetrahydro-7H-benzo[7,8]chromeno[2,3-b]quinolin-8-amines as potential drugs for the treatment of Alzheimer's disease” (Eur J Med Chem, 2012)
